Source: publication PMC11720011, “Single Disulfide Bond in Host Defense Thanatin Analog Peptides: Antimicrobial Activity, Atomic-Resolution Structures and Target Interactions” (International Journal of Molecular Sciences, 2024)
In brackets after ≈: the same amount, converted by molar mass. Residues, ends and D or L forms follow the SMILES beside them.

T1: LptAm, truncated functional deletion variant of the periplasmic LPS transport protein LptA of E. coli (E. coli, UniProt P0ADV1 28-159)
T1 construct: LptA of E. coli, residues 28-159 (LptAm); no removal of the His tag is told; also called His-tagged LptAm; source: E. coli BL21, purified (Ni-NTA, size-exclusion chromatography)
T1 sequence (looked up): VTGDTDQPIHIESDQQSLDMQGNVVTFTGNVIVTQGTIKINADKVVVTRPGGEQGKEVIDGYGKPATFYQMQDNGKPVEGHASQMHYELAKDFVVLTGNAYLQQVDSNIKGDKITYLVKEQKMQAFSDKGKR

B1: VF16QK, disulfide-bonded 16-residue thanatin analog peptide (peptide)
peptide: VPIIYCNRRTKKCKRF
HELM: PEPTIDE1{V.P.I.I.Y.C.N.R.R.T.[dK].K.C.K.R.F.[am]}$PEPTIDE1,PEPTIDE1,6:R3-13:R3$$$V2.0; N-terminus assumed
SMILES: CC[C@H](C)[C@H](NC(=O)[C@@H](NC(=O)[C@@H]1CCCN1C(=O)[C@@H](N)C(C)C)[C@@H](C)CC)C(=O)N[C@@H](Cc1ccc(O)cc1)C(=O)N[C@H]1CSSC[C@@H](C(=O)N[C@@H](CCCCN)C(=O)N[C@@H](CCCNC(=N)N)C(=O)N[C@@H](Cc2ccccc2)C(N)=O)NC(=O)[C@H](CCCCN)NC(=O)[C@@H](CCCCN)NC(=O)[C@H]([C@@H](C)O)NC(=O)[C@H](CCCNC(=N)N)NC(=O)[C@H](CCCNC(=N)N)NC(=O)[C@H](CC(N)=O)NC1=O
notes: Analog of thanatin of Podisus maculiventris (21 residues) without its five N-terminal residues; also called VK16QK; source: synthetic peptide; bought: GL Biochem, Shanghai

Experiments:
[1] = tested on: ATCC strains of E. coli, K. pneumoniae, S. enterica, S. pyogenes and E. faecalis; assay type: cell-based; settings: 18 h
Description: (§1) Antibacterial activities of the VF16QK and VF16QK^Ser peptides (GL Biochem, Shanghai, China) were determined using the broth dilution method. Bacterial strains of Escherichia coli ATCC 25922 (EC); Salmonella enterica ATCC 14028 (SE); Klebsiella pneumoniae ATCC 13883 (KP); Acinetobacter baumannii ATCC BAA-1798 (AB) Streptococcus pyogenes ATCC 19615 (SP) and Enterococcus faecalis ATCC 29212 (EF) were used for this study.
(§2) Typically, overnight cultures of bacterial cells were grown to mid-log phase and diluted in 2X Mueller Hinton (MH) broth (Millipore-Sigma^TM, Saint Louis, MO, USA) to a final OD600 of 0.002. In a 96-well plate, 100 μL of the diluted bacterial solutions and 100 μL of the VF16QK and VF16QK^Ser peptides in concentrations ranging from 0.5 μM to 8 μM were incubated at 37 °C for 18 h.

[2] = tested on: Enterococcus faecalis ATCC 29212 (EF); assay type: cell-based; settings: ATCC 29212, 18 h
Description: as §1, §2

[3] = tested on: Escherichia coli ATCC 25922 (EC); assay type: cell-based; settings: ATCC 25922, 18 h
Description: as §1, §2

[4] = tested on: Klebsiella pneumoniae ATCC 13883 (KP); assay type: cell-based; settings: ATCC 13883, 18 h
Description: as §1, §2

[5] = tested on: Streptococcus pyogenes ATCC 19615 (SP); assay type: cell-based; settings: ATCC 19615, 18 h
Description: as §1, §2

[6] = target: T2, LptAm, the periplasmic LPS transport protein of E. coli (Escherichia coli, UniProt P0ADV1); test: Isothermal titration calorimetry (ITC) with LptAm; assay type: binding; settings: in words
T2 construct: His-tagged LptAm (residues 28–159) of E. coli; His-tag; made in house; host or cells: E. coli BL21
Description: Figure 2 Isothermal titration calorimetry (ITC) of binding interactions of VF16QK with (A) LptAm, the periplasmic LPS transport protein of E. coli, and (B) the LPS-outer membrane. LptAm-peptide ITC studies were carried out in 50 mM of sodium phosphate buffer and 150 mM of NaCl at pH 7.0 and 25 °C. LptAm proteins in sample cells were titrated with 2 μL aliquots of peptides and the heat exchange was measured. For LPS–peptide interactions, LPS in sample cells were titrated with 2 μL aliquots of peptides in 10 mM of sodium phosphate buffer, pH 7.0, 37 °C.
The binding interactions of the thanatin peptides VF16QK and VF16QK^Ser with the LPS-outer membrane and LptAm were determined using ITC. LPS and peptide samples were prepared in 10 mM of sodium phosphate buffer, pH 7.0. Typically, twenty injections, or 2.0 μL of peptides (1 mM in syringe), were titrated into the sample cell containing LPS ([…]) at 37 °C with a stirring speed of 750 rpm. […] ITC data were analyzed following single site binding in Microcal origin 5.0 software to determine the association constant (Ka) and change of enthalpy (ΔH). The dissociation constant (Kd), change of free energy (ΔG) and change of entropy (TΔS) were calculated as: Kd = 1/Ka, ΔG = ΔH − TΔS, respectively. […]

[7] = tested on: LPS-outer membrane of E. coli cells; test: Outer membrane permeabilization assay (NPN fluorescence); assay type: cell-based; settings: E. coli cells OD600 ~0.5, 10 mM sodium phosphate, peptide 1 to 16 µM, excitation 350 nm, emission 390–450 nm; in words
Description: (§3) Figure 1 (A) Fluorescence emission spectra of NPN as a function of concentrations of the VF16QK and VF16QK^ser peptides in E. coli cell solutions. 10 μM of fluorescence probes were prepared in 10 mM of sodium phosphate buffer with a fixed bacterial cell density of 0.5. Fluorescence spectra were recorded with an excitation wavelength of 350 nm and emission of 390–450 nm. (B) Plot showing z potential changes of E. coli cells as a function of concentrations, 2 to 32 μM, of the VF16QK and VF16QK peptides.
VF16QK and VF16QK^Ser were assessed for their ability to permeabilize the LPS-outer membrane of E. coli cells by use of the fluorescence probe 1-N-phenylnapthylamine (NPN). Bacterial cells were prepared from a mid-log culture in 10 mM of sodium phosphate with an adjusted OD600 ~ 0.5. A basal fluorescence of […] NPN in bacterial suspension, in absence of peptide, was measured followed by sequential additions of peptides from 1 to 16 µM. Fluorescence experiments were conducted in a Cary Eclipse spectrophotometer (Varian, Palo Alto, CA, USA) using a 0.1 cm quartz cuvette. An excitation wavelength of 350 nm and emission was recorded from 390–450 nm.

E. coli cells = test: Zeta potential measurements (surface charge neutralization); assay type: cell-based; settings: 10 mM sodium phosphate pH 7, peptide up to 32 μM, three replicates, in words
Description: as §3
Zeta potential measurements were performed in a Zeta Sizer Nano ZS (Malvern Instruments, Worcestershire, UK) instrument equipped with a 633 nm He laser. Mid-log phase E. coli cultures were centrifuged at 5000 rpm for 10 min and prepared in 10 mM of sodium phosphate buffer, pH 7. Z potential values of bacterial cell suspension were obtained from 1 to 32 μM of the peptides in zeta cells with gold electrodes. For individual measurement, 100 runs were carried out and three replicates were performed.

[8] = target: T1, LptAm, truncated functional deletion …; test: ITC; peptide (250 uM in syringe, 20 injections of 2 uL) titrated into LptAm in the sample cell (25 mM [sic]); 50 mM sodium phosphate, 150 mM NaCl, pH 7.0, 25 °C; single site binding fit; settings: both partners purified

Molecule | MIC values over Gram-negative and Gram-positive bacterial strains [1] | MIC, EF [2] | MIC, EC [3] | MIC, KP [4] | MIC, SP [5] | nature of binding to LptAm (heat of exchange) [6] | NPN fluorescence emission (LPS-outer membrane permeabilization) [7] | neutralization of surface charge (zeta potential) (E. coli cells) | Kd [8] | dH [8]
CC[C@H](C)[C@H](NC(=O)[C@@H](NC(=O)[C@@H]1CCCN1C(=O)[C@@H](N)C(C)C)[C@@H](C)CC)C(=O)N[C@@H](Cc1ccc(O)cc1)C(=O)N[C@H]1CSSC[C@@H](C(=O)N[C@@H](CCCCN)C(=O)N[C@@H](CCCNC(=N)N)C(=O)N[C@@H](Cc2ccccc2)C(N)=O)NC(=O)[C@H](CCCCN)NC(=O)[C@@H](CCCCN)NC(=O)[C@H]([C@@H](C)O)NC(=O)[C@H](CCCNC(=N)N)NC(=O)[C@H](CCCNC(=N)N)NC(=O)[C@H](CC(N)=O)NC1=O [VF16QK] (HELM PEPTIDE1{V.P.I.I.Y.C.N.R.R.T.[dK].K.C.K.R.F.[am]}$PEPTIDE1,PEPTIDE1,6:R3-13:R3$$$V2.0) | 1 to 4 µM | 1 µM (≈ 2.02 µg/mL) | 1 to 4 µM | 1 to 2 µM | 1 µM (≈ 2.02 µg/mL) | – | – | – | – | –
CC[C@H](C)[C@H](NC(=O)[C@@H](NC(=O)[C@@H]1CCCN1C(=O)[C@@H](N)C(C)C)[C@@H](C)CC)C(=O)N[C@@H](Cc1ccc(O)cc1)C(=O)N[C@@H](CO)C(=O)N[C@@H](CC(N)=O)C(=O)N[C@@H](CCCNC(=N)N)C(=O)N[C@@H](CCCNC(=N)N)C(=O)N[C@H](C(=O)N[C@H](CCCCN)C(=O)N[C@@H](CCCCN)C(=O)N[C@@H](CO)C(=O)N[C@@H](CCCCN)C(=O)N[C@@H](CCCNC(=N)N)C(=O)N[C@@H](Cc1ccccc1)C(N)=O)[C@@H](C)O [VF16QK^Ser] (HELM PEPTIDE1{V.P.I.I.Y.S.N.R.R.T.[dK].K.S.K.R.F.[am]}$$$$V2.0; N-terminus and C-terminus assumed) | > 16 µM | – | – | – | – | endothermic binding | significantly diminished LPS-outer membrane permeabilization | less effective | – | –
B1 | – | – | – | – | – | – | – | – | 400 nM | -10.2 kcal/mol
